A short description of data set [1]: Cytotoxicity MTT assay on Vero cells. It is filed as cell-based. Particulars: African green monkey, highest concentration tested 200 µmol/L, read-out: CC50 on Vero cell. As to the method: The cytotoxicity of each potential PhoQ inhibitor towards a Vero cell line was analyzed by the traditional MTT assay. The CC50 values of all four compounds were higher than 200 µmol/L, the highest tested concentration of potential PhoQ inhibitors. As a control, an equal concentration of DMSO (0.1%) was added to a well of Vero cells, and no obvious cytotoxicity was observed (Table 1).
Cytotoxicity of the potential PhoQ inhibitors on cultured Vero cells was measured by using the Cell Proliferation Kit I (MTT) (Roche, Indianapolis, USA). An equal concentration of DMSO (0.1%) in the medium was used as a negative control. The cytotoxicity assay was performed in triplicate for each potential PhoQ inhibitor, and the assay for each potential PhoQ inhibitor was repeated twice. The results were converted to percentage of the control (cells only containing 0.1% DMSO) and CC50 (concentrations that produce a 50% cytotoxicity effect on Vero cell) of each potential PhoQ inhibitors was calculated using the Origin v7.0 software (OriginLab, Northampton, USA).
In general terms: Tetrazolium dyes change colour on reduction, which living cells bring about.

Data set [2] is described as follows: Erythrocyte hemolysis assay. The class given is cell-based. Particulars: human erythrocytes (5% suspension), healthy human erythrocytes. As to the method:
The hemolytic activity of the potential PhoQ inhibitors was determined using human erythrocytes. The erythrocytes were washed three times with sterile saline and resuspended to 5% cell concentration prior to assay. Then, 200 µl erythrocyte suspensions containing 25 µmol/L or 100 µmol/L concentrations of each potential PhoQ inhibitors were added in triplicate to the wells of the 96-well microtiter plates. Cells without potential PhoQ inhibitors treatment or with 1% Triton-100 treatment were used as the zero or 100% hemolysis control, respectively. The cell suspensions were incubated for 1 hour at 37°C and centrifuged for 10 minutes at 1200×g. Supernatants (100 µl) were transferred to another sterile plate, and the released hemoglobin was measured absorbance readings at 570 nm. […] The hemolysis assay was repeated twice.

Data set [3] addresses T1, SF-PhoQc (Shigella flexneri, UniProt Q83RR1).
T1 construct: The amplified DNA segment encodes PhoQ HK amino acids 251–486; made in house; host or cells: E. coli JM109
Kind of data set: Luminescent Kinase Assay of SF-PhoQc. It is filed as biochemical, S. flexneri 2a 301. As to the method: Luminescent Kinase Assay was used to confirm the effects of compounds 1, 2, 3 and 4 on the enzymatic activity of SF-PhoQc. In the Luminescent Kinase Assay, the putative kinase activity of SF-PhoQc protein was measured by quantifying the amount of ATP that remained in solution after the reaction. […] Next, the effect of each compound on the enzymatic activity of SF-PhoQc was measured.
In the Luminescent Kinase assay, reactions were performed in solid black, flat-bottomed 96-well plates. To determine the IC50 of potential PhoQ HK inhibitors, each compound underwent 2-fold serial dilutions with DMSO (0.1%) and was added into the reaction mixture. The final reaction mixture contained 4 µg of purified SF-PhoQc, 40 mmol/L Tris-Cl (pH 7.5), 16 mmol/L MgCl2, 0.8 mmol/L DTT and different concentration of 100, 50, 25, 12.5, 6.25 or 3.125 µmol/L compound, respectively. After incubation at 30°C for 25 minutes, 3 µmol/L ATP was added, and the reaction was incubated at 30°C for another 25 minutes. Next, an equal volume of Luminescent Kinase Reagent was added to each well, mixed and kept at room temperature for 10 minutes before recording the luminescence reading on a Fluoroskan Ascent FL machine (Thermo Scientific, USA). The rate of phosphorylation inhibition by a compound was calculated with the following formula: [drawing 2]
The IC50 value of each compound was determined using the Origin 7.0 software (OriginLab, Northampton, USA).

Data set [4] deals with T1, SF-PhoQc. As to the kind of experiment: Pyrophosphate Reagent coupled enzymatic activity assay of SF-PhoQc. The class given is biochemical, S. flexneri 2a 301. As to conditions: for decrease of SF-PhoQc catalyzed consumption of ATP: Pyrophosphate Reagent. As to the method: The enzymatic activity of SF-PhoQc was determined using the Pyrophosphate Reagent, in which ATP initiates the reaction and ADP generated by ATP is accompanied by the reduction of NADH to NAD^+. The rate of NADH reduction to NAD^+ is detected by a change in absorbance readings at 340 nm. The activity of SF-PhoQc is measured by detecting a decrease in NADH at A340. Recombinant SF-PhoQc (25 µmol/L) was added to initiate the reaction, and the A340 value was recorded by SoftMax vision 4.8 each minute for 30 minutes. The A340 value reduced from 1.47 to 0.65 in the presence of SF-PhoQc (Figure 2).
Figure 2 The activity of recombinant SF-PhoQc. The activity of SF-PhoQc from the Pyrophosphate Reagent was shown. All assays were conducted in a 96-well microplate spectrophotometer. The assay mixture (total volume was 200 µl) contained 25 mmol/L KCl, 2.5 mmol/L MgCl2, 2 mmol/L ATP, 1 mmol/L phosphoendpyruvate, 0.35 mmol/L NADH, 1.5 U/ml PK, 1.25 U/ml LDH and 50 mmol/L Tris-Cl (pH 8.0). Protein SF-PhoQc was added to a final concentration of 25 µmol/L to start the reaction. After SF-PhoQc was added, the A340 value was recorded by SoftMax vision 4.8 every minute for 30 minutes.
The enzymatic activity of SF-PhoQc was measured using both a Pyrophosphate Reagent (Sigma-Aldrich, MO, USA) and a Luminescent Kinase Assay (Promega, WI, USA). The Pyrophosphate Reagent was performed to confirm the inhibitory activities of the effective potential PhoQ inhibitors in the bioinformatics approach. All reactions were carried out in solid black, flat-bottomed 96-well plates. The Pyrophosphate Reagent was performed at 28°C by monitoring the decrease of NADH by a decrease in absorbance readings at 340 nm (ε340 = 6180 M^−1·cm^−1) in the presence of ATP. The final reaction mixture for the Pyrophosphate Reagent contained 25 µmol/L purified SF-PhoQc, 25 mmol/L KCl, 2.5 mmol/L MgCl2, 2 mmol/L ATP, 1 mmol/L phosphoendpyruvate, 0.35 mmol/L NADH, 1.5 U/ml PK, 1.25 U/ml LDH and 50 mmol/L Tris-Cl (pH 8.0). The enzyme activity was determined in the presence of various concentrations of potential PhoQ inhibitors […] to investigate dose-dependent inhibition effects. The A340 value was recorded by SoftMax vision 4.8 every minute, for 30 minutes. The rate of SF-PhoQc enzymatic activity inhibition by a compound was calculated by the following formula: [drawing 1]
Rp (Ratio of Phosphorylation) was defined as the ratio of the decrease activity of SF-PhoQc treated with compound vs the activity of SF-PhoQc treated without compounds. Rp was stand for the percentage of decrease activity of SF-PhoQc.
IC50(the concentration of inhibition of 50%)values of potential PhoQ inhibitors were obtained by fitting the data to a sigmoid dose–response equation using Origin 7.0 software (OriginLab, Northampton, USA).

Each structure is given as a SMILES string.

The text below walks through data of paper PMC3154276, “The Effect of the Potential PhoQ Histidine Kinase Inhibitors on Shigella flexneri Virulence” (PLoS ONE, 2011).

T1 sequence (Q83RR1 251-486): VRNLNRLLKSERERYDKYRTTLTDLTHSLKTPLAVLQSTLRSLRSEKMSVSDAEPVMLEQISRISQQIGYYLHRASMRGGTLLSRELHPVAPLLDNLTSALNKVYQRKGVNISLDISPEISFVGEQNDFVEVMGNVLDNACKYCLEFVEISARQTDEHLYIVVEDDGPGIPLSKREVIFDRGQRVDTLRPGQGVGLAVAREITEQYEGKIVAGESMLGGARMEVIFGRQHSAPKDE

Take `O=C(O)c1ccc(Cl)c(-c2ccc(/C=N/NC(=O)c3ccc(Br)cc3)o2)c1` [Compound 3]: the CC50 (in general, the concentration at which the toxic effect on the cells reaches its halfway point) in data set [1] is above 200 µM. Further, in data set [2], the hemolysis at 1 h, 25 µmol/L was below 0.1% and the hemolysis at 1 h, 100 µmol/L is below 0.1%. Moreover, the midpoint of inhibition at SF-PhoQc [3], the IC50, lay at 7.99 ± 5.61 µM. Further, on SF-PhoQc [4], the IC50 – broadly, the concentration needed to halve the response being measured – turned out to be 27.8 ± 10.7 µM and the “decrease of SF-PhoQc catalyzed consumption of ATP” value (from here on “decrease”) is reported as 67.1%.
Consider `CCOc1ccccc1-c1cc(C(=O)N/N=C/c2ccc(OCc3ccccc3)c(OC)c2)c2ccccc2n1` [Compound 2], for which the CC50 in data set [1] was above 200 µM. In data set [2], this molecule came in with a hemolysis at 1 h, 25 µmol/L below 0.1% and a hemolysis at 1 h, 100 µmol/L below 0.1%. Moreover, the concentration for half-maximal inhibition (IC50) against SF-PhoQc [3] is 48.9 ± 14.7 µM. For the same molecule, at SF-PhoQc [4], half-maximal inhibition (IC50) was put at 57 ± 1.04 µM and the “decrease” value came to 82.3%.
On to `O=C(Nc1ccc(C2(c3cccc(NC(=O)c4cccc5ccccc45)c3)c3ccccc3C(=O)c3ccccc32)cc1)c1ccc2ccccc2c1` [Compound 1], for which, in data set [1], the half-maximal cytotoxic concentration (CC50) was above 200 µM. In data set [2], this molecule yielded a hemolysis at 1 h, 25 µmol/L below 0.1% and a hemolysis at 1 h, 100 µmol/L below 0.1%. At SF-PhoQc [3], this molecule gave a 50% inhibitory concentration (IC50) of 69.37 ± 0.56 µM. In addition, on SF-PhoQc [4], half-maximal inhibition (IC50) required 12 ± 3.91 µM and the “decrease” value is reported as 100%.
For `O=C(O)c1cc(-c2ccc(-c3ccccc3Cl)o2)nc2ccc3ccccc3c12` [Compound 4], the CC50 in data set [1] was above 200 µM. For the same molecule, in data set [2], the hemolysis at 1 h, 25 µmol/L was below 0.1% and the hemolysis at 1 h, 100 µmol/L was below 0.1%. Further, the IC50 against SF-PhoQc [3] is 27.2 ± 15.4 µM. For the same molecule, on SF-PhoQc [4], 27.8 ± 5.59 µM corresponded to half-maximal inhibition (IC50) and the “decrease” value amounted to 65.8%.
